From paper PMC8746328, “Three New Isoprenylated Flavones from Artocarpus chama Stem and Their Bioactivities” (Molecules, 2021)
Converted amounts (≈) assume the structure as drawn. Like-named read-outs stand apart in the source and are kept apart here.

Tests used:
[1] = system: methicillin-resistant Staphylococcus aureus (DMST20654); assay: Antimicrobial activity, broth microdilution; format: cell-based; details: MRSA
Protocol: (§1) Microorganisms that cause skin infection, such as Staphylococcus aureus (ATTC 25923), Staphylococcus epidermidis (TISTR 517), Cutibacterium acnes (DMST 14916), and methicillin-resistant Staphylococcus aureus (DMST20654),t were selected for this study. The isolated compounds were determined for minimum inhibitory concentration (MIC) and minimum bactericidal concentration (MBC) by a modified broth microdilution method. Briefly, 20 µL of the test samples (dilution series ranging from 2560 to 1.25 µg/mL) was added in wells 1 to 12. Then, 80 µL of media was added into each well. Next, 100 µL of the inoculum (concentration 10^6 CFU/mL) was added in each well. The final concentration of inoculum in each well was 5 × 10^5 CFU/mL. Then, the cultures were incubated follow the conditions. Incubation mixtures showing positive results of inhibitory effect (MIC) were streaked on media agar, and then incubated by following the conditions.

[2] = system: B16F1 melanoma cells; assay: Melanin content; format: cell-based, murine; details: 50 µg/mL, 48 h
Protocol: (§2) Murine melanoma B16-F1 cells (CLS-400122) were cultured in DMEM or Dulbecco’s modified Eagle medium containing 10% FBS heat-inactivated fetal bovine serum at 37 °C in a humidified atmosphere with 5% CO2. When cells reached 70–80% confluence cell viability, cellular tyrosinase activity and melanin content were measured. First, 3 × 10^5 cells/well were seeded in 12-well plates and allowed to adhere at 37 °C for 12 h. Cells were treated with test samples; control cells were treated with 0.5% DMSO. After 48 h incubation, cells were lysed with RIPA and centrifuged at 14,000 rpm for 20 min (4 °C) in order to separate the supernatant for measurement of tyrosinase activity, and the cell pellet was measured for melanin content. Cell pellets were dissolved with 1M NaOH and incubated at 55 °C for 1 h. Melanin content was calculated by comparison with the standard curve of synthetic melanin at 475 nm.

[3] = system: Cutibacterium acnes (DMST 14916); assay: Antimicrobial activity, broth microdilution; format: cell-based; details: C. acnes
Protocol: as §1

[4] = system: Staphylococcus epidermidis (TISTR 517); assay: Antimicrobial activity, broth microdilution; format: cell-based; details: TISTR517, S. epidermidis
Protocol: as §1

[5] = system: Staphylococcus aureus (ATTC 25923); assay: Antimicrobial activity, broth microdilution; format: cell-based; details: S. aureus
Protocol: as §1

[6] = target: tyrosinase enzyme; assay: Enzymatic antityrosinase activity, dopachrome method (L-Dopa substrate); format: biochemical; details: pH 6.8, 25 °C
Protocol: Antityrosinase activity was determined by the dopachrome method. L-dopa was used as the substrate. Oxidation of L-Dopa to dopachrome which, represented by red color, could be detected by visible light at 492 nm. Briefly, 140 µL of phosphate buffer pH 6.8, 20 µL of sample solution (200 µg/mL), and 2 µL of tyrosinase enzyme solution (203.3 unit/mL) were mixed in a 96-well plate at 25 °C for 10 min. Then, 20 µL of L-Dopa (0.85 mM) was added, and optical density (OD) was detected. After incubation at 25 °C for 20 min, OD was detected again. Dimethyl sulfoxide (DMSO) was used as a negative control. […] The percent inhibition of tyrosinase reaction was calculated by the following equation:Tyrosinase inhibition (%) = [1 − (OD492 of sample/OD492 of control)] × 100.

[7] = system: B16F1 melanoma cells; assay: Intracellular antityrosinase activity; format: cell-based, murine; details: 50 µg/mL, 48 h
Protocol: as §2, with “The supernatant was collected for determination of protein content by the Bradford method, with bovine serum albumin (BSA) used as a standard. The supernatant of lysate cells and 2 mg/mL L-Dopa” for “Cell pellets”, “added to a 96-well plate” for “dissolved with 1M NaOH”, “25” for “55”, “After that, optical densities were determined at 492 nm. Tyrosinase inhibition” for “Melanin content”, “then calculated.” for “calculated by comparison with the standard curve of synthetic melanin at 475 nm.”

Compound	MIC [3] [mg/L]	MIC [4] [mg/L]	MIC ([1]; read-out: MIC) [mg/L]	MIC [5] [mg/L]	IC50 on tyrosinase inhibitory activity [6] [mg/L]	MBC [1] [mg/L]	MIC [1] [mg/L]	Melanin content (result in words) [2]	MBC [3] [mg/L]	MBC [4] [mg/L]	MBC ([1]; read-out: MBC) [mg/L]	MBC [5] [mg/L]	Intracellular antityrosinase activity (result in words) [7]	Intracellular antityrosinase activity (result in words) ([7]; listed as artocarpanone)
CN[C@H](CC(C)C)C(=O)N[C@H]1C(=O)N[C@@H](CC(N)=O)C(=O)N[C@H]2C(=O)N[C@H]3C(=O)N[C@H](C(=O)N[C@H](C(=O)O)c4cc(O)cc(O)c4-c4cc3ccc4O)[C@H](O)c3ccc(c(Cl)c3)Oc3cc2cc(c3O[C@@H]2O[C@H](CO)[C@@H](O)[C@H](O)[C@H]2O[C@H]2C[C@](C)(N)[C@H](O)[C@H](C)O2)Oc2ccc(cc2Cl)[C@H]1O [Van, Vancomycin, reference compound]						0.5 (≈ 0.345 µM)	0.125 (≈ 0.0863 µM)							
COc1cc(O)c2c(c1)O[C@H](c1ccc(O)cc1O)CC2=O [Compound 6, Artocarpanone]	32 (≈ 106 µM)	64 (≈ 212 µM)	128 (≈ 423 µM)	64 (≈ 212 µM)	38.78 ± 1.02 (≈ 128 µM)			could reduce the amount of melanin content	64 (≈ 212 µM)	128 (≈ 423 µM)	> 256	256 (≈ 847 µM)	exhibited antityrosinase activity	exhibited intracellular antityrosinase activity
Cc1onc(-c2ccccc2)c1C(=O)N[C@@H]1C(=O)N2[C@@H]1SC(C)(C)[C@@H]2C(=O)O [Oxa, Oxacillin, reference compound]	0.5 (≈ 1.25 µM)	0.5 (≈ 1.25 µM)		0.125 (≈ 0.311 µM)					0.5 (≈ 1.25 µM)	0.5 (≈ 1.25 µM)		0.125 (≈ 0.311 µM)		
COc1cc([C@@H]2CC(=O)c3c(O)cc(O)cc3O2)ccc1O [Compound 4, Homoeriodictyol]	> 256	128 (≈ 423 µM)	> 256	256 (≈ 847 µM)					> 256	256 (≈ 847 µM)	> 256	> 256		
O=C1C[C@@H](c2ccc(O)cc2)Oc2cc(O)cc(O)c21 [Compound 7, Naringenin]	> 256	256 (≈ 940 µM)	> 256	> 256	>200				> 256	> 256	> 256	> 256		
CC(C)=CCCC(C)=CCCC(C)=CCc1cc(-c2cc(=O)c3c(O)cc(O)cc3o2)ccc1O [Compound 1, 3′-Farnesylapigenin]	> 256	256 (≈ 539 µM)	> 256	256 (≈ 539 µM)	135.70 ± 1.16 (≈ 286 µM)				> 256	> 256	> 256	> 256		

Continued, in another order:

MIC [3] [mg/L]	MIC [4] [mg/L]	MIC ([1]; read-out: MIC) [mg/L]	MIC [5] [mg/L]	IC50 on tyrosinase inhibitory activity [6] [mg/L]	Compound	MBC [1] [mg/L]	MIC [1] [mg/L]	Melanin content (result in words) [2]	MBC [3] [mg/L]	MBC [4] [mg/L]	MBC ([1]; read-out: MBC) [mg/L]	MBC [5] [mg/L]	Intracellular antityrosinase activity (result in words) [7]	Intracellular antityrosinase activity (result in words) ([7]; listed as artocarpanone)
128 (≈ 333 µM)	16 (≈ 41.6 µM)	4 (≈ 10.4 µM)	4 (≈ 10.4 µM)	>200	COc1cc(O)c(-c2oc3cc(O)cc(O)c3c(=O)c2CC=C(C)C)cc1O [Compound 3, 3-Prenyl-5,7,2′,5′-tetrahydroxy-4′-methoxyflavone]				> 256	64 (≈ 167 µM)	32 (≈ 83.3 µM)	16 (≈ 41.6 µM)		
256 (≈ 589 µM)	4 (≈ 9.21 µM)	16 (≈ 36.8 µM)	4 (≈ 9.21 µM)	>200	CC1(C)C=Cc2c(cc3oc4c(c(=O)c3c2O)CC2c3c(c(O)cc(O)c3-4)OC2(C)C)O1 (stereo not shown) [Compound 5, Isocycloartobiloxanthone]				> 256	8 (≈ 18.4 µM)	64 (≈ 147 µM)	8 (≈ 18.4 µM)		
8 (≈ 18.3 µM)	2 (≈ 4.58 µM)	2 (≈ 4.58 µM)	2 (≈ 4.58 µM)	>200	COc1cc2oc(-c3ccc(O)cc3O)c(CC=C(C)C)c(=O)c2c(O)c1/C=C/C(C)C [Compound 8, artocarpin]				32 (≈ 73.3 µM)	32 (≈ 73.3 µM)	2 (≈ 4.58 µM)	4 (≈ 9.16 µM)		
128 (≈ 331 µM)	16 (≈ 41.4 µM)	16 (≈ 41.4 µM)	16 (≈ 41.4 µM)	>200	CC(C)=CC(O)c1c(-c2cc(O)c(O)cc2O)oc2cc(O)cc(O)c2c1=O (stereo not shown) [Compound 2, 3-(Hydroxyprenyl) isoetin]				> 256	32 (≈ 82.8 µM)	64 (≈ 166 µM)	32 (≈ 82.8 µM)		
